Measurements reported in US5614504A, “Method of making inosine monophosphate derivatives and immunopotentiating uses thereof” (The University of South Florida, priority 1995, dated 1997).
Read-outs that look alike come from different tables or passages of the source.

Legend:
[1] = Further set: percent hydrolysis by 5'-nucleotidase (Table 1B); type: in vitro ADME, Crotalus atrox; settings: rattlesnake, 20 minutes incubation, 200 μl
Protocol: Nucleotide samples (40-60 nmoles) were incubated at 37° C. for 10 minutes with 0.02 units 5'-nucleotidase in a total volume of 100 μl containing […] HEPES, pH 7.3 and […] MgCl2. […] Phosphate was determined by the absorbance of 820 nm. Blanks consisting of nucleotide but no enzyme were tested in parallel to correct for non-enzymatic hydrolysis.
The protocol was as hereinabove except that the first incubation was for 20 minutes in a total volume of 200 μl, 0.1 mM HEPES and 10 mM MgCl2. The percent hydrolysis of nucleotides was performed in duplicate for each assay.

[2] = test system: human peripheral blood lymphocytes (HPBL); test: Response of normal HPBL to PHA (tritiated thymidine incorporation); type: cell-based; settings: 0.1-100 μg/ml; FIG. 1
Protocol: (§1) In vitro: Both human peripheral blood lymphocytes (HPBL) and mouse spleen lymphocytes (MSL) were employed. […] For HPBL transformation, PHA and PWM were used at 0.5 μg/ml. For MSL transformation, Con A was used at 0.5 μg/ml, phytohemagglutinin (PHA, Murex Diagnostics, Atlanta, Ga.) at 0.5 μg/ml and lipopolysaccharide endotoxin (LPS, Sigma, St. Louis, Mo.) at 10 μg/ml.
(§2) They were cultured in microwell plates at 1.5×10^6 cells/ml of minimal essential media (MEM, Gibco Labs, Grand Island, N.Y.) with 5% fetal calf serum (FCS, Hyclone Labs, Logan, Utah) and tested for their proliferative response to mitogens as measured by incorporation of (^3 H) tritiated thymidine (New England Nuclear, Wilmington Del., […]; 2.5 μCi/ml) during a terminal pulse followed by liquid scintillation spectrometry.

[3] = test system: human peripheral blood lymphocytes (HPBL); test: Response of normal HPBL to PWM; type: cell-based; settings: PWM 0.5 μg/ml
Protocol: In vitro: Both human peripheral blood lymphocytes (HPBL) and mouse spleen lymphocytes (MSL) were employed. Proliferation was assayed by tritiated thymidine incorporation, as described in Hadden et al. (1975) and Hadden et al. (1986). For HPBL transformation, PHA and PWM were used at 0.5 μg/ml. For MSL transformation, Con A was used at 0.5 μg/ml, phytohemagglutinin (PHA, Murex Diagnostics, Atlanta, Ga.) at 0.5 μg/ml and lipopolysaccharide endotoxin (LPS, Sigma, St. Louis, Mo.) at 10 μg/ml. When protected-IMP derivatives were added, they were added at the onset of culture at varying concentrations ranging from 0.1 μg/ml to 100 μg/ml.
as §2, with “Murine splenocytes were obtained from BALB/c mice, 4-12 months old, by standard procedures (Hadden et al., 1975). They” for “They”, “spectrometry. Human cells were seeded at […] and cultured for 48 hours with an 18 hour pulse with ^3 H-thymidine.” for “spectrometry.”
Normal human peripheral blood lymphocytes (HPBL) were stimulated with the mitogenic agents PHA or PWM. […]

[4] = test system: mouse spleen lymphocytes (MSL); test: Mouse spleen lymphocyte proliferation to Con A; type: cell-based
Protocol: as §1, §2

[5] = test system: spleen plaque antibody forming cells (PFC); test: In vivo stimulation of PFC response to SRBC; parameters: species or system mice
Protocol: Five days later, suspensions of spleen cells were prepared and their viability was determined by trypan blue exclusion test. Cells were suspended at 3×10^6 /ml. 0.2 ml of spleen cell suspension was mixed with 0.8 ml of 0.7% agarose and 0.2 ml of freshly washed SRBC (at 6×10^5 /ml). The mixture was immediately poured into the plate and allowed to solidify. After 60 minutes of incubation at 37° C. in a humid atmosphere of 5% CO2 in the air, the plate was flooded with 1 ml of guinea-pig complement diluted 1:5 with Hank's balanced saline. Hemolytic plaques were counted with an inverted scope using 4× magnification.
Spleen plaque antibody forming cells (PFC) were measured at the end of the five days.

[6] = test system: Friend Leukemia Virus (FLV); test: Survival of mice infected with Friend Leukemia Virus; type: in vivo, BALB/c mice; settings: 1 mg/kg/day i.p. day 3 to day 13; P<0.004 Wilcoxon
Protocol: Control mice were treated with saline intraperitoneally from day 3 to day 13 following infection, and Me-IMP treated mice were treated with 1 mg/kg/day from day 3 to day 13, and the day of death was recorded.

[7] = test system: Salm. typhimurium strain 415; test: Salmonella infection mortality; type: in vivo, BALB/c mice; settings: the various treatments of MIMP; p<0.01; control about 2.5 days
influenza virus = type: in vivo, NMRI mice; settings: for % mortality: Table 7, 200 μg, i.n.
anti-HBs = test: Anti-HBs responses in immunocompromised irradiated DBA/2 mice (EIA); type: in vivo; settings: for anti-HBs, Day 21: p < 0.01
Protocol: Experimental mice were irradiated at a dose rate of 25 rad/min (1 rad=0.01 Gy) using a ^60 Coγ beam source for four minutes. Data represent the average of ten animals in each group.
Serum specimens from immunized mice were tested for the presence of anti-HBs in an enzyme immunoassay (EIA) using the diagnostic kits of Roche Diagnostica as per the manufacturer's instructions. The anti-HBs EIA kit (Roche), has a sensitivity of <10 IU/1.
Antibody concentration was determined with the help of calibration curves designed on the basis of the results of anti-HBs detection in standard serum panel (Roche Diagnostica) with the concentrations, as follows: 10 IU/l; 50 IU/l; 100 IU/l and 150 IU/l. The results of the two experiments were used for the calculation of mean values.
In a second set of experiments, the effect of MIMP on the induction of a specific immune response to HBsAg in immunocompromised DBA/2 mice subjected to ionizing radiation was analyzed using the same vaccination schemes as set forth for the control DBA/2.

[8] = scheme 6: Radiation + scheme N2 (HBsAg + MIMP per os)
[9] = scheme 7: Radiation + scheme N3 (HBsAg + MIMP i.p. then per os)

COP(=O)(O)OC[C@H]1O[C@@H](n2cnc3c(=O)[nH]cnc32)[C@H](O)[C@@H]1O [Me-IMP, Methyl-5'-inosine-monophosphate]
metabolised at 20 min ([1]; read-out: Percent hydrolysis by 5'-nucleotidase, Assay 1): 1.5%
metabolised at 20 min ([1]; read-out: Percent hydrolysis by 5'-nucleotidase, Assay 2): 2.2%
metabolised at 20 min ([1]; read-out: Percent hydrolysis by 5'-nucleotidase, Assay 3): 2.6%
relative activity on HPBL response to PHA [2]: more active
effect on PWM response of HPBL [3]: not affected
relative potency, in vitro mouse lymphocyte proliferation [4]: most potent
proliferative responses of MSL to Con A ([4]; 0.1, 1, 10, 100 μg/ml, Con A 0.5 μg/ml): stimulated the proliferative responses
effect on PFC response ([5]; 50 mg/kg of body weight ip with SRBC, PFC five days later): significantly stimulated
dose of optimal stimulation of PFC response ([5]; intraperitoneal): 50 mg/kg of body weight
PFC activity at lower doses ([5]; intraperitoneal, below 50 mg/kg): active at lower doses
peak dose for stimulation of PFC response ([5]; oral, with SRBC antigen and daily for five days): 50 mg/kg of body weight
mean survival time (MST) [6]: larger mean survival time
MST [7]: about four
% mortality (influenza virus; -1 h): 80%
% mortality (influenza virus; -1 d): 60%
number of survivors and mean survival time (MST) (influenza virus; mouse, in vivo): increased the number of survivors and mean survival time
survival and MST (influenza virus; mouse, in vivo): increased survival and MST
anti-HBs, Day 14 (anti-HBs; [8]): < 10 IU/1
anti-HBs, Day 21 (anti-HBs; [8]): 100 IU/1
anti-HBs, Day 14 (anti-HBs; [9]): < 10 IU/1
anti-HBs, Day 21 (anti-HBs; [9]): 100 IU/1
